Laboratory results from PubChem BioAssay (NCI).
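Results reflect a 48-hour exposure of cells in 96-well plates to compound at five concentrations. GI50 is the concentration that inhibits growth by half. Definition used: TGI = concentration required for complete inhibition of growth.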

Tests used:
Test in all cases: NCI anticancer screen, dose series, 48 h
A498 renal = system: A498 renal
A549 NSCLC = system: A549 NSCLC
LOX IMVI melanoma = system: LOX IMVI melanoma
NCI-H226 lung = system: NCI-H226 lung
OVCAR-4 ovarian = system: OVCAR-4 ovarian
SK-MEL-28 melanoma = system: SK-MEL-28 melanoma
SNB-19 CNS = system: SNB-19 CNS
U251 CNS = system: U251 CNS
UACC-62 melanoma = system: UACC-62 melanoma
UO-31 renal = system: UO-31 renal

Row | Compound | TGI (A498 renal) [µM] | TGI (A549 NSCLC) [µM] | TGI (LOX IMVI melanoma) [µM] | TGI (NCI-H226 lung) [µM] | TGI (OVCAR-4 ovarian) [µM] | TGI (SK-MEL-28 melanoma) [µM] | TGI (SNB-19 CNS) [µM] | TGI (U251 CNS) [µM] | TGI (UACC-62 melanoma) [µM] | TGI (UO-31 renal) [µM] | GI50 (A498 renal) [µM] | GI50 (A549 NSCLC) [µM] | GI50 (LOX IMVI melanoma) [µM] | GI50 (NCI-H226 lung) [µM] | GI50 (OVCAR-4 ovarian) [µM] | GI50 (SK-MEL-28 melanoma) [µM] | GI50 (SNB-19 CNS) [µM] | GI50 (U251 CNS) [µM] | GI50 (UACC-62 melanoma) [µM] | GI50 (UO-31 renal) [µM]
1 | OCC[N+]12CCCN1CCC2 | > 100 | > 100 | > 100 | > 100 | > 100 | > 100 | > 100 | > 100 | > 100 | > 100 |  |  |  |  |  |  |  |  |  | 
2 | CC(C)(C)CC(C)(C)c1ccc(O)c(Cc2ccc(Cl)cc2Cl)c1 | 2.61 | 2.83 | 2.86 | 2.87 | 2.93 | 2.96 | 3.21 | 2.9 | 3.07 | 2.83 | 1.33 | 1.51 | 1.53 | 1.53 | 1.59 | 1.61 | 1.82 | 1.56 | 1.7 | 1.5
3 | O=C(N/C(=C\c1cccc([N+](=O)[O-])c1)c1nc2ccccc2[nH]1)c1ccccc1 | > 100 | > 100 |  | > 100 | > 100 | 68.9 | > 100 | > 100 | > 100 | 69.4 |  |  |  |  |  |  |  |  |  | 
4 | Cn1cc(-c2nc(-c3c[nH]c4ncccc34)cs2)c2ccccc21 | > 100 | > 100 | > 100 | > 100 | > 100 | > 100 | > 100 | > 100 | > 100 | > 100 | 34.5 | 26.6 | 24.5 | 14.2 | 0.117 | 48.8 | 71.4 | 24.8 | 30.5 | > 100
5 | COc1cc(-c2nc3sc(C)cn3c2/C=C2\C(=O)Nc3ccccc32)c(Br)c(OC)c1OC | 63.5 | > 100 | > 100 | > 100 | > 100 | > 100 | 63.9 | 54.8 | > 100 | > 100 | 29 | 44 | 30.3 | 44.2 | 44.1 | 39.1 | 23.9 | 22.9 | 34 | 37.1
6 | CC(C)(C)c1cc(CCCCCCCC2(CCCCCCCc3cc(C(C)(C)C)cc(C(C)(C)C)c3)OC(COCCOCCCCCC#N)C(COCCOCCCCCC#N)O2)cc(C(C)(C)C)c1 (centres undefined) | > 100 | > 100 | > 100 | > 100 | > 100 | > 100 | > 100 | > 100 | > 100 | > 100 |  |  |  |  |  |  |  |  |  | 
7 | O=C1CC(c2ccccc2)Cc2nc3ccc(Br)cc3cc21 (centres undefined) | 0.487 | > 100 | > 59.8 | > 20.3 | > 100 | > 100 | > 100 | > 100 | > 100 | > 100 | 0.0377 | 0.378 | 0.746 | 0.908 | 6.93 | 1.34 | 0.495 | 0.514 | 0.26 | 0.689
8 | Oc1c(Cl)cc(Cl)cc1/C=N/Nc1nnc(N/N=C/c2cc(Cl)cc(Cl)c2O)c2ccccc12 | > 100 | > 100 | 0.586 | 3.04 | > 100 | > 100 | > 100 | > 52.6 | 1.71 | > 100 | 2.19 | 0.419 | 0.225 | 0.402 | 0.388 | 0.622 | 0.505 | 0.345 | 0.318 | 0.43
9 | O=C(COc1cccc(/C=C2\CSc3ccc(Cl)cc3C2=O)c1)c1ccc(Cl)cc1 | > 100 | > 100 | 3.02 | 44.4 | 23.1 | 30.4 | 20.8 | 5.44 | 22.5 | 27.2 | 44.6 | 77.6 | 1.63 | 13.4 | 9.25 | 15.6 | 6.57 | 2.32 | 9.04 | 12
10 | CCOc1cn(C2OC(CO)C(O)C2O)c(=O)[nH]c1=O (centres undefined) | > 100 | > 100 | > 100 | > 100 |  | > 100 | > 100 | 43.7 | > 100 | > 100 |  |  |  |  |  |  |  |  |  | 
11 | COc1cc(CNCCN2C(=O)c3ccc4c5c(ccc(c35)C2=O)C(=O)N(CCNCc2cc(OC)c(OC)c(OC)c2)C4=O)cc(OC)c1OC |  |  | 0.421 |  | 0.398 |  | 1.84 | 0.684 | 1.36 |  |  |  | 0.142 |  | 0.122 |  | 0.827 | 0.182 | 0.552 | 
12 | COc1ccc(C(=O)c2c3cc(OC)c(OC)c(OC)c3cc[n+]2C)cc1 | > 100 | 34.7 |  | 65.2 |  | > 100 | > 100 | > 100 |  | > 100 |  |  |  |  |  |  |  |  |  | 
13 | CC(=O)O[C@H]1CCN2C(=O)C=CC(OCc3ccccc3)C12 (some centres undefined) | > 100 | > 100 | > 100 | > 100 | > 100 | > 100 |  | > 100 | > 100 | > 100 |  |  |  |  |  |  |  |  |  | 
14 | CC(C)(C)C(=O)Nc1cccc2oc(-c3ccccc3)cc12 | > 100 | > 100 |  |  | > 100 | > 100 | > 100 | > 100 | > 100 | > 100 |  |  |  |  |  |  |  |  |  | 
15 | Oc1ccc2c3c1OC1c4[nH]ncc4C[C@H]4[C@@H](C2)N(CC2CC2)CC[C@]314 (some centres undefined) |  | > 100 | > 100 | > 100 | > 100 | > 100 | > 100 | > 100 | > 100 | > 100 |  |  |  |  |  |  |  |  |  | 
16 | COc1cc(N2C(=O)[C@H](c3ccccc3)C2c2ccc(SC)cc2)cc(OC)c1OC (some centres undefined) | 0.078 | > 100 | > 100 | > 100 | > 100 |  | > 100 | > 100 | 8.86 | > 100 | 0.0232 | 0.0374 | 0.0352 | 0.0301 | 0.0545 |  | 0.0422 | 0.0375 | 0.0484 | 0.738
